Experimental data published in patent US10011609B2, “Heterocyclic compounds” (CADILA HEALTHCARE LIMITED, priority 2013, dated 2018).
Where a name gives a salt, the structure may show the parent alone. Read-outs that look alike come from different tables or passages of the source.

Biological target: T1, GPR40 (Homo sapiens, UniProt O14842)
T1 construct: host or cells: HEK293 (ChemiBrite cell line)
Test: Promoter-luciferase assay to measure GPR40 activation (HEK293 cells stably transfected with GPR40 cDNA)
Type: cell-based
Conditions: HEK293 cells stably transfected with GPR40, 5xSRE-luciferase
Procedure: GPR40 activation was measured in HEK293 cells stably transfected with GPR40 cDNA (ChemiBrite cell lines from Millipore, US). These cells were transiently transfected with a pGL2 (Promega Inc.) plasmid having a 5×SRE sequence, cloned 5′ of a luciferase gene along with a β-galactosidase plasmid as normalizing control. Briefly, 35000 cells/well were seeded in a 96 well plates. After overnight incubation at 37° C., the cells were washed with PBS and transfected with the 5×-SRE-Luciferase plasmid and the β-galactosidase plasmid. 6 h post transfection, media was removed and replaced with fresh media with different concentration of drugs and incubated for 16 more hours. The cells were then lysed in 50 μL of Glo-Lysis buffer (Promega) for 30 min at room temperature. The cells were then centrifuged and lysates were collected. Luciferase activity was measured by adding 100 μL of luciferase substrate (Promega) in 20 μL of lysate and measuring the luminescence in luminometer. The […] activity was also measured by adding 20 μL of lysates with 20 μL of β-galactosidase buffer (Promega) and monitoring the absorbance at 415 nm. Luciferase values were divided by β-galactosidase values to normalize transfection efficiency (Table 2)

[1] = read-out: EC50 in Luciferase assay

T1 sequence (O14842 whole entry, species assumed): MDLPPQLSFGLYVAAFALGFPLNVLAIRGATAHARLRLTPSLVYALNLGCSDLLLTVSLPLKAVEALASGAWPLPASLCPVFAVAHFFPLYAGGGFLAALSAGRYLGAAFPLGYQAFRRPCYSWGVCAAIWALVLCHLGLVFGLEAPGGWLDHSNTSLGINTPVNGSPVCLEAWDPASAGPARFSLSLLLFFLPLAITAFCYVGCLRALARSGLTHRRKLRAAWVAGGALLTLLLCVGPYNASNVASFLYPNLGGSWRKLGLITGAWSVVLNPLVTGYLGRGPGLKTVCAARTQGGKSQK

SMILES	EC50 [1] [nM]	EC50 (EC50 in Luciferase assay) [nM]
CC#C[C@@H](CC(=O)O)c1ccc(OCc2cccc(CN3CCCc4ccccc43)c2)cc1 [Compound 13, (S)-3-(4-((3-((3,4-dihydroquinolin-1(2H)-yl)methyl)benzyl)oxy)phenyl)hex-4-ynoic acid]	0.8	
CC#C[C@@H](CC(=O)O)c1ccc(OCc2cccc(CN3CCc4nc(Br)sc4C3)c2)cc1 [Compound 32, (S)-3-(4-((3-((2-Bromo-6,7-dihydrothiazolo[5,4-c]pyridin-5(4H)-yl)methyl)benzyl)oxy)phenyl)hex-4-ynoic acid]	4.8	
CC#C[C@@H](CC(=O)O)c1ccc(OCc2cccc(CN3CCc4sc(C(=O)NC5CC5)cc4C3)c2)cc1 [Compound 61, (S)-3-(4-((3-((2-(cyclopropylcarbamoyl)-6,7-dihydrothieno[3,2-c]pyridin-5(4H)-yl)methyl)benzyl)oxy)phenyl)hex-4-ynoic acid]	12.6	
CC#C[C@@H](CC(=O)O)c1ccc(OCc2cccc(CN3CCc4ncncc4C3)c2)cc1 [Compound 21, (S)-3-(4-((3-((7,8-Dihydropyrido[4,3-d]pyrimidin-6(5H)-yl)methyl)benzyl)oxy)phenyl)hex-4-ynoic acid]	2.8	
CC#C[C@@H](CC(=O)O)c1ccc(OCc2cccc(CN3Cc4ccccc4C3)c2)cc1 [Compound 12, (S)-3-(4-((3-(isoindolin-2-ylmethyl)benzyl)oxy)phenyl)hex-4-ynoic acid trifluoroacetic acid]	5.6	
CC#C[C@@H](CC(=O)O)c1ccc(OCc2cccc(CN3CCc4nc(Cl)sc4C3)c2)cc1 [Compound 31, (S)-3-(4-((3-((2-Chloro-6,7-dihydrothiazolo[5,4-c]pyridin-5(4H)-yl)methyl)benzyl)oxy)phenyl)hex-4-ynoic acid]	9.7	
CC#C[C@@H](CC(=O)O)c1ccc(OCc2cccc(CN3CCc4sc(C(=O)O)cc4C3)c2)cc1 [Compound 35, (S)-5-(3-((4-(1-carboxypent-3-yn-2-yl)phenoxy)methyl)benzyl)-4,5,6,7-tetrahydrothieno[3,2-c]pyridine-2-carboxylic acid]	204	
CC#C[C@@H](CC(=O)O)c1ccc(OCc2cccc(CN3CCc4sc(CC)cc4C3)c2)cc1 [Compound 71, (S)-3-(4-((3-((2-Ethyl-6,7-dihydrothieno[3,2-c]pyridin-5(4H)-yl)methyl)benzyl)oxy)phenyl)hex-4-ynoic acid]	0.4	
CC#C[C@@H](CC(=O)O)c1ccc(OCc2cccc(CN3CCc4oc(C5CC5)nc4C3)c2)cc1 [Compound 26, (S)-3-(4-((3-((2-Cyclopropyl-6,7-dihydrooxazolo[4,5-c]pyridin-5(4H)-yl)methyl)benzyl)oxy)phenyl)hex-4-ynoic acid]	4.1	
CC#C[C@@H](CC(=O)O)c1ccc(OCc2cccc(CN3CCc4ccccc4C3)c2)cc1 [Compound 15, (S)-3-(4-((3-((3,4-dihydroisoquinolin-2(1H)-yl)methyl)benzyl)oxy)phenyl)hex-4-ynoic acid]	4.6	
CC#C[C@@H](CC(=O)O)c1ccc(OCc2cccc(CN3CCc4nc(N)sc4C3)c2)cc1 [Compound 38, (S)-3-(4-((3-((2-amino-6,7-dihydrothiazolo[5,4-c]pyridin-5(4H)-yl)methyl)benzyl)oxy)phenyl)hex-4-ynoic acid]	17.8	
CC#C[C@@H](CC(=O)O)c1ccc(OCc2cccc(CN3CCc4sc(C=O)cc4C3)c2)cc1 [Compound 44, (S)-3-(4-((3-((2-formyl-6,7-dihydrothieno[3,2-c]pyridin-5(4H)-yl)methyl)benzyl)oxy)phenyl)hex-4-ynoic acid]	4.8	
CC#C[C@@H](CC(=O)O)c1ccc(OCc2cccc(CN3CCc4sc(C(=O)N(C)C)cc4C3)c2)cc1 [Compound 47, (S)-3-(4-((3-((2-(dimethylcarbamoyl)-6,7-dihydrothieno[3,2-c]pyridin-5(4H)-yl)methyl)benzyl)oxy)phenyl)hex-4-ynoic acid]	9	
CC#C[C@@H](CC(=O)[O][Ca][O]C(=O)C[C@H](C#CC)c1ccc(OCc2cccc(CN3CCc4ccccc4C3)c2)cc1)c1ccc(OCc2cccc(CN3CCc4ccccc4C3)c2)cc1 [Compound 20, Calcium (S)-3-(4-((3-((3,4-dihydroisoquinolin-2(1H)-yl)methyl)benzyl)oxy)phenyl)hex-4-ynoate]		2.7
CC#C[C@@H](CC(=O)O)c1ccc(OCc2cccc(CN3CCc4sc([N+](=O)[O-])cc4C3)c2)cc1 [Compound 65, (S)-3-(4-((3-((2-Nitro-6,7-dihydrothieno[3,2-c]pyridin-5(4H)-yl)methyl)benzyl)oxy)phenyl)hex-4-ynoic acid]	1.6	
CC#C[C@@H](CC(=O)[O][Ca][O]C(=O)C[C@H](C#CC)c1ccc(OCc2cccc(CN3CCc4sc(Cl)cc4C3)c2)cc1)c1ccc(OCc2cccc(CN3CCc4sc(Cl)cc4C3)c2)cc1 [Compound 39, Calcium (S)-3-(4-((3-((2-chloro-6,7-dihydrothieno[3,2-c]pyridin-5(4H)-yl)methyl)benzyl)oxy)phenyl)hex-4-ynoate]		1.7
CC#C[C@@H](CC(=O)O)c1ccc(OCc2cccc(CN3CCc4sc(C(=O)NC)cc4C3)c2)cc1 [Compound 46, (S)-3-(4-((3-((2-(methylcarbamoyl)-6,7-dihydrothieno[3,2-c]pyridin-5(4H)-yl)methyl)benzyl)oxy)phenyl)hex-4-ynoic acid]	6	
CC#C[C@@H](CC(=O)O)c1ccc(OCc2cccc(CN3CCc4ccccc43)c2)cc1 [Compound 24, (S)-3-(4-((3-(Indolin-1-ylmethyl)benzyl)oxy)phenyl)hex-4-ynoic acid]	0.7	
CC#C[C@@H](CC(=O)O)c1ccc(OCc2cccc(CN3CCc4sc(C(F)F)cc4C3)c2)cc1 [Compound 18, (S)-3-(4-((3-((2-(Difluoromethyl)-6,7-dihydrothieno[3,2-c]pyridin-5(4H)-yl)methyl)benzyl)oxy)phenyl)hex-4-ynoic acid]	8.8	
CC#C[C@@H](CC(=O)O)c1ccc(OCc2cccc(CN3CCc4sc(NC(C)=O)cc4C3)c2)cc1 [Compound 63, (S)-3-(4-((3-((2-Aacetamido-6,7-dihydrothieno[3,2-c]pyridin-5(4H)-yl)methyl)benzyl)oxy)phenyl)hex-4-ynoic acid]	4.4	
CC#C[C@@H](CC(=O)O)c1ccc(OCc2cccc(CN3CCc4ncccc4C3)c2)cc1 [Compound 68, (S)-3-(4-((3-((7,8-Dihydro-1,6-naphthyridin-6(5H)-yl)methyl)benzyl)oxy)phenyl) hex-4-ynoic acid]	11.9	
CC#C[C@@H](CC(=O)O)c1ccc(OCc2cccc(CN3CCc4sc(C(C)=O)cc4C3)c2)cc1 [Compound 72, (S)-3-(4-((3-((2-Acetyl-6,7-dihydrothieno[3,2-c]pyridin-5(4H)-yl)methyl)benzyl)oxy)phenyl)hex-4-ynoic acid]	2.3	
CC#C[C@@H](CC(=O)O)c1ccc(OCc2cccc(CN3CCc4sc(C5CC5)cc4C3)c2)cc1 [Compound 69, (S)-3-(4-((3-((2-Cyclopropyl-6,7-dihydrothieno[3,2-c]pyridin-5(4H)-yl)methyl)benzyl)oxy)phenyl)hex-4-ynoic acid compound with 2,2,2-trifluoroacetic acid]	0.8	
CC#C[C@@H](CC(=O)O)c1ccc(OCc2cccc(CN3CCCc4ccc(OC)cc43)c2)cc1 [Compound 30, 1-(3-((4-((S)-1-carboxypent-3-yn-2-yl)phenoxy)methyl)benzyl)-7-methoxy-1,2,3,4-tetrahydroquinolin-1-ium formate]	4.5	
CC#C[C@@H](CC(=O)O)c1ccc(OCc2cccc(CN3CCc4sc(C(N)=O)cc4C3)c2)cc1 [Compound 40, (S)-3-(4-((3-((2-carbamoyl-6,7-dihydrothieno[3,2-c]pyridin-5(4H)-yl)methyl)benzyl)oxy)phenyl)hex-4-ynoic acid]	8	
CC#C[C@@H](CC(=O)O)c1ccc(OCc2cccc(CN3CC4CC(C3)O4)c2)cc1 [Compound 23, (3S)-3-(4-((3-(6-Oxa-3-azabicyclo[3.1.1]heptan-3-ylmethyl)benzyl)oxy)phenyl)hex-4-ynoic acid]	5.3	
CC#C[C@@H](CC(=O)O)c1ccc(OCc2cccc(CN3CCc4c(ccn4C(=O)OC(C)(C)C)C3)c2)cc1 [Compound 8, (S)-3-(4-((3-((1-(tert-butoxycarbonyl)-6,7-dihydro-1H-pyrrolo[3,2-c]pyridin-5(4H)-yl)methyl)benzyl)oxy)phenyl)hex-4-ynoic acid]	11.8	
CC#C[C@@H](CC(=O)O)c1ccc(OCc2cccc(CN3CCc4nc(OC)ncc4C3)c2)cc1 [Compound 50, (S)-3-(4-((3-((2-Methoxy-7,8-dihydropyrido[4,3-d]pyrimidin-6(5H)-yl)methyl)benzyl)oxy)phenyl)hex-4-ynoic acid]	20.8	
CC#C[C@@H](CC(=O)O)c1ccc(OCc2cccc(CN3CCc4sc(C#N)cc4C3)c2)cc1 [Compound 43, (S)-3-(4-((3-((2-cyano-6,7-dihydrothieno[3,2-c]pyridin-5(4H)-yl)methyl)benzyl)oxy)phenyl)hex-4-ynoic acid]	7.3	
CC#C[C@H](CC(=O)O)c1ccc(OCc2cccc(CN3CCc4sc(C)cc4C3)c2)cc1 [Compound 55, (R)-3-(4-((3-((2-methyl-6,7-dihydrothieno[3,2-c]pyridin-5(4H)-yl)methyl)benzyl)oxy)phenyl)hex-4-ynoic acid]	56.5	
